These results are taken from US8034811B2, “Hydroxamic acid esters and pharmaceutical use thereof” (Leo Pharma A/S, priority 2003, dated 2011).

The IC50 is the midpoint of a concentration-inhibition curve.

This experiment concerns the target T1, human intracellular domain of KDR (VEGF Receptor-2) (Homo sapiens, UniProt P35968).
T1 construct: A fusion protein containing the intracellular domain (amino acids 793 to 1357) of the KDR and N-terminally tagged to GST; made in house; host or cells: Sf9 insect cells (baculovirus, pDEST20) for GST-KDR-cyt; E. coli BL21 (pGEX-4T-1) for GST-PLCγ
As to the kind of experiment: In vitro KDR kinase assay. It is filed as biochemical. The note with it: IC50 as molar concentration; GST-KDR-cyt, substrate phospholipase Cγ, ATP 100 μM, 30 min room temperature, time-resolved fluorometry. The method, then: The intracellular domain of the KDR receptor was used in the in vitro KDR assay. This domain contains the tyrosine kinase domain of KDR, and when expressed in Sf9 cells, this domain is constitutively active i.e. the kinase domain is phosphorylated on tyrosine residues.
The compounds to be tested were dissolved in DMSO at 10 mM, stored at −20° C. and protected from light. The maximum concentration of DMSO in the in vitro assay was 0.1%. Control samples received the same concentration of solvent as the samples treated with the test compounds.
For the kinase assays, black 96 wells MaxiSorp microtiter plates were coated by an overnight incubation with 100 μl/well of a 2.5 μg/ml solution of phospholipase Cγ in TBS buffer (40 mM Tris-HCl, pH 7.4, 20 mM Mg(C2H3O2)2, 0.02% NaN3) at 4° C. The plates were washed 3 times with TBS buffer containing 0.1% Tween-20, and the residual binding sites were masked by incubation with 1% BSA in TBS buffer containing 0.1% Tween-20 for 1 h. The plates were washed again and the test compounds were added at final concentrations up to 10 μM, together with ATP at the final concentration of 100 μM in 50 μl TBS buffer/well. Then, 50 μl of the human intracellular domain of KDR (VEGF Receptor-2) finally diluted 3000-3500 fold were added and were incubated for 30 min at room temperature. The plates were washed and 100 μl of the Europium labelled PY-20 anti-phosphotyrosine antibody (Wallac, FIN) were incubated in each well at the concentration of approximately 114 ng/ml for 2 h. Then, the plates were washed and 100 μl of enhancer solution (Wallac, FIN) were incubated in each well for 5 min in the dark. The plates were read in a Victor 1420 multilabel counter, using a Europium protocol for time-resolved fluorometry (Wallac, FIN): excitation 340 nm, emission 615 nm, sample pulse cycle 400 μs. Fluorescence was measured for 400 μs between flashes after a delay time of 400 μs. The background measured in the absence of enzyme was subtracted from all samples. The molar concentrations that inhibited 50% of the maximal enzymatic activity (IC50) were calculated from the dose-response curve, by fitting a straight line between the two concentrations immediately above and below the 50% inhibition point (i.e. by solving the equation y=a+bx).

Each structure is given as a SMILES string.

T1 sequence (P35968 794-1356 limits assumed): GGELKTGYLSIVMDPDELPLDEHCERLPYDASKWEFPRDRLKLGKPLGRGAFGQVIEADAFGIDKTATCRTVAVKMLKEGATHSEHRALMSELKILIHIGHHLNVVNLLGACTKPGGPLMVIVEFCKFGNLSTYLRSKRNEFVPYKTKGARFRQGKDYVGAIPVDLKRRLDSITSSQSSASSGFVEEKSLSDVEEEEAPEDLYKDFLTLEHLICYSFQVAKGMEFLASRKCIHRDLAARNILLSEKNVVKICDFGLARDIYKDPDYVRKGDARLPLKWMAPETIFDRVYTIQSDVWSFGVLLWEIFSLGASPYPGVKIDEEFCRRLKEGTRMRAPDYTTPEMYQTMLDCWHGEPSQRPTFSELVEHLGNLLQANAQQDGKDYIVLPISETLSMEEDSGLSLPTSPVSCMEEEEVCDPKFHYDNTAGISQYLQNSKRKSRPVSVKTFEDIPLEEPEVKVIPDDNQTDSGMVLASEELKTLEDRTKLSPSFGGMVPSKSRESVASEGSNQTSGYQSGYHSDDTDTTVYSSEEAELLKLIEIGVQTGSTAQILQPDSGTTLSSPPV

The molecule `Cc1nc(CONC(=O)c2ccccc2NCc2ccncc2)cs1` [Compound 32, N-(2-methyl-thiazol-4 ylmethoxy)-2-[(pyridin-4-ylmethyl)-amino]-benzamide] had an IC50 of 20 nM.
Next, `O=C(NOCc1ccccc1)c1ccccc1NCc1ccnc2ccccc12` [compound 230]: 25.1 nM; `O=C(NOCC1CCCCCCC1)c1ccccc1NCc1ccncc1` [Compound 122, N-Cyclooctylmethoxy-2-[(pyridin-4-ylmethyl)-amino]-benzamide]: 7.94 nM; `O=C(NOCC1CCCCCC1)c1ccccc1NCc1ccncc1` [Compound 121, N-Cycloheptylmethoxy-2-[(pyridin-4-ylmethyl)-amino]-benzamide]: 50.1 nM.
The molecule `Nc1ccccc1CONC(=O)c1ccccc1NCc1ccncc1` [Compound 85, N-(2-Amino-benzyloxy)-2-[(pyridin-4-ylmethyl)-amino]-benzamide] had an IC50 of 50.1 nM.
The figure for `CNC(=O)Nc1cc(CNc2ccccc2C(=O)NOCc2ccc(C#N)cc2OC)ccn1` [Compound 211, N-(4-Cyano-2-methoxy-benzyloxy)-2-{[2-(3-methyl-ureido)-pyridin-4-ylmethyl]-amino}-benzamide] is 20 nM; for `O=C(NOCc1ccc2c(c1)CCC2)c1ccccc1NCc1ccncc1` [Compound 73, N-(Indan-5-ylmethoxy)-2-[(pyridin-4-ylmethyl)-amino]-benzamide] it is 15.8 nM; for `C=C(C)C(=O)OCCNC(=O)Nc1cc(CNc2ccccc2C(=O)NOCC2CCCC2)ccn1` [compound 219] it is 39.8 nM.
Next, `O=C(NOCc1ccccc1)c1cccnc1NCc1ccncc1` [Compound 33, N-Benzyloxy-2-2-[(pyridin-4-ylmethyl)-amino]-nicotinamide]: 100 nM; `O=C(NOCC1CC=CCC1)c1ccccc1NCc1ccncc1` (stereo not drawn) [Compound 128, N-(Cyclohex-3-enylmethoxy)-2-[(pyridin-4-ylmethyl)-amino]-benzamide]: 15.8 nM.
The figure for `O=C(NOCc1ccc(F)c(C(F)(F)F)c1)c1ccccc1NCc1ccncc1` [Compound 61, N-(4-Fluoro-3-trifluoromethyl-benzyloxy)-2-[(pyridin-4-ylmethyl)-amino]-benzamide] is 15.8 nM; for `O=C(NOCc1ccc2ccccc2n1)c1ccccc1NCc1ccncc1` [Compound 28, 2-[(Pyridin-4-ylmethyl)-amino]-N-(quinolin-2-ylmethoxy)-benzamide] it is 100 nM; for `COc1ccc(CONC(=O)c2cccnc2NCc2ccc(F)cc2)cc1` [Compound 34, 2-(4-Fluoro-benzylamino)-N-(4-methoxy-benzyloxy)-nicotinamide] it is 794 nM.
For the molecule `O=C(NOCc1cc(Cl)ccc1Cl)c1ccccc1NCc1ccncc1` [Compound 19, N-(2,5-Dichloro-benzyloxy)-2-[(pyridin-4-ylmethyl)-amino]-benzamide], the IC50 was 63.1 nM.
The figure for `Cc1ccc(F)cc1CONC(=O)c1ccccc1NCc1ccncc1` [Compound 42, N-(5-Fluoro-2-methyl-benzyloxy)-2-[(pyridin-4-ylmethyl)-amino]-benzamide] is 10 nM.
The figure for `O=C(NOCc1ccccc1Br)c1ccccc1NCc1ccncc1` [Compound 13, N-(2-Bromo-benzyloxy)-2-[(pyridin-4-ylmethyl)-amino]-benzamide] is 15.8 nM; for `O=C(NOCc1ccc(C(F)(F)F)cc1)c1ccccc1NCc1ccncc1` [Compound 6, N2-[(Pyridin-4-ylmethyl)-amino]-N-(4-trifluoromethyl-benzyloxy)-benzamide] it is 63.1 nM; for `O=C(NOCC1CCOCC1)c1ccccc1NCc1ccncc1` [Compound 141, 2-[(Pyridin-4-ylmethyl)-amino]-N-(tetrahydro-pyran-4-ylmethoxy)-benzamide] it is 50.1 nM.
Next, `O=C(NOCc1csc(-c2ccccc2)n1)c1ccccc1NCc1ccncc1` [Compound 107, N-(2-Phenyl-thiazol-4-ylmethoxy)-2-[(pyridin-4-ylmethyl)-amino]-benzamide]: 100 nM; `O=C(NOCCC1CC1)c1ccccc1NCc1ccncc1` [Compound 125, N-(2-Cyclopropyl-ethoxy)-2-[(pyridin-4-ylmethyl)-amino]-benzamide]: 39.8 nM; `O=C(NOCc1ccc(F)cc1)c1ccccc1NCc1ccc2occc2c1` [Compound 199, 2-[(Benzofuran-5-ylmethyl)-amino]-N-(4-fluoro-benzyloxy)-benzamide]: 50.1 nM.
In turn, `COc1cc(F)ccc1CONC(=O)c1ccccc1NCc1ccncc1` [Compound 39, N-(4-Fluoro-2-methoxy-benzyloxy)-2-[(pyridin-4-ylmethyl)-amino]-benzamide] gave an IC50 of 6.31 nM.
Next, `COC(=O)c1ccc(CONC(=O)c2ccccc2NCc2ccncc2)cc1` [Compound 26, 4-{2-[(pyridin-4-ylmethyl)-amino]-benzoylaminooxymethyl}-benzoic acid methyl ester]: 79.4 nM; `O=C(NOCc1ccccc1-c1cccs1)c1ccccc1NCc1ccncc1` [Compound 98, 2-[(Pyridin-4-ylmethyl)-amino]-N-(2-thiophen-2-yl-benzyloxy)-benzamide]: 39.8 nM; `N#Cc1ccc(CONC(=O)c2cccnc2NCc2ccncc2)c(F)c1` [Compound 158, N-(4-Cyano-2-fluoro-benzyloxy)-2-[(pyridin-4-ylmethyl)-amino]-nicotinamide]: 79.4 nM.
Next, `O=C(NOCc1ccccc1Br)c1cccnc1NCc1ccncc1` [Compound 161, N-(2-Bromo-benzyloxy)-2-[(pyridin-4-ylmethyl)-amino]-nicotinamide]: 63.1 nM; `COc1ccc(CNc2ccccc2C(=O)NOCc2ccccc2)cn1` [compound 236]: 79.4 nM.
Next, `O=C(NOCc1ccccc1OC(F)F)c1ccccc1NCc1ccncc1` [Compound 69, N-(2-Difluoromethoxy-benzyloxy)-2-[(pyridin-4-ylmethyl)-amino]-benzamide]: 6.31 nM; `CC1CC=CCC1CONC(=O)c1ccccc1NCc1ccncc1` (stereo not drawn) [Compound 129, N-(6-Methyl-cyclohex-3-enylmethoxy)-2-[(pyridin-4-ylmethyl)-amino]-benzamide]: 10 nM.
Regarding `O=C(NCCCO)c1cc(CNc2ccccc2C(=O)NOCC2CCCC2)ccc1F` [Compound 188, 5-[(2-Cyclopentylmethoxycarbamoyl-phenylamino)-methyl]-2-fluoro-N-(3-hydroxypropyl)-benzamide], half-maximal inhibition (IC50) required 79.4 nM.
`O=C(NOCc1ccc(F)cc1)c1ccccc1NCc1ccncc1` [Compound 22, N-(4-Fluoro-benzyloxy)-2-[(pyridin-4-ylmethyl)-amino]-benzamide] showed an IC50 of 25.1 nM.
`O=C(NOCc1ccc(OC(F)(F)F)cc1)c1ccccc1NCc1ccncc1` [Compound 68, 2-[(Pyridin-4-ylmethyl)-amino]-N-(4-trifluoromethoxy-benzyloxy)-benzamide] showed an IC50 of 79.4 nM.
The figure for `CCOC(=O)CNC(=O)Nc1cc(CNc2ccccc2C(=O)NOCc2ccc(C#N)cc2)ccn1` [compound 214] is 50.1 nM; for `O=C(NOCc1ccccc1OC(F)(F)F)c1ccccc1NCc1ccncc1` [Compound 66, 2-[(Pyridin-4-ylmethyl)-amino]-N-(2-trifluoromethoxy-benzyloxy)-benzamide] it is 63.1 nM.
Next, `Cc1ccc(CONC(=O)c2ccccc2NCc2ccncc2)cc1` [Compound 47, N-(4-Methyl-benzyloxy)-2-[(pyridin-4-ylmethyl)-amino]-benzamide]: 15.8 nM.
Next, `O=C(NOCc1ccccc1F)c1ccccc1NCc1ccncc1` [Compound 20, N-(2-Fluoro-benzyloxy)-2-[(pyridin-4-ylmethyl)-amino]-benzamide]: 31.6 nM.
`O=C(NOc1ccccc1)c1ccccc1NCc1ccncc1` [Compound 29, N-Phenoxy-2-[(pyridin-4-ylmethyl)-amino]-benzamide] showed an IC50 of 126 nM.
Next, `COCC(=O)Nc1cc(CNc2ccccc2C(=O)NOCC2CCCC2)ccn1` [compound 246]: 20 nM; `O=C(NOCC1CCCCC1)c1ccccc1NCc1ccncc1` [Compound 120, N-Cyclohexylmethoxy-2-[(pyridin-4-ylmethyl)-amino]-benzamide]: 39.8 nM.
